Results published in PMC8049054, “Systematic Assessment of Fragment Identification for Multitarget Drug Design” (Chemmedchem, 2021).

Biological target: T1, LTA4H (Homo sapiens, UniProt P09960)
T1 construct: made in house; host or cells: E. coli BL21 (DE3)
T1 sequence (P09960 1-611): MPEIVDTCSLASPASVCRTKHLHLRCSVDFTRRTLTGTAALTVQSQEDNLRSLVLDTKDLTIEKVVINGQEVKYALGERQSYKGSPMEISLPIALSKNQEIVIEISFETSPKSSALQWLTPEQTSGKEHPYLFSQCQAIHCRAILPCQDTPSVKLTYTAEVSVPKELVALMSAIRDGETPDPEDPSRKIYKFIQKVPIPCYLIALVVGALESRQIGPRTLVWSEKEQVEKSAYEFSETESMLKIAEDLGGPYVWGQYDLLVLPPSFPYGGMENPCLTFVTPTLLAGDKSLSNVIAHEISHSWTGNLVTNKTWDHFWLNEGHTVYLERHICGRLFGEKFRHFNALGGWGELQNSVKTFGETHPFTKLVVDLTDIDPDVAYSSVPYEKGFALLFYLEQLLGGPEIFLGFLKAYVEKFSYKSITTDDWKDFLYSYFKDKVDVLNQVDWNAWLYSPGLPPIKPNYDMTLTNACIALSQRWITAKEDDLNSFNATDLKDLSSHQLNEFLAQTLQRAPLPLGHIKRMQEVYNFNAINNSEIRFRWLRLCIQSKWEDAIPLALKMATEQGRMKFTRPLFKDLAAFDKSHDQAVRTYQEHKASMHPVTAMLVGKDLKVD
Test: ITC measurement LTA4H
Type: binding
Settings: 25 °C, read-out: LTA4H K d

`Oc1ccc(-c2ccc(F)cc2F)cc1` [Compound 9] was tested, and the Kd was 5.3 µM.

With `Fc1ccc(-c2c[nH]c3ccccc23)cc1` [Compound 10] the Kd was 1.7 µM.
